Measurements from patent US8338414B2, “Immunosuppressive agent and anti-tumor agent comprising heterocyclic compound as active ingredient” (Zenyaku Kogyo KabushikiKaisha, priority 2005, dated 2012).
Like-named read-outs stand apart in the source and are kept apart here.

How the values were obtained:
[1] = system: human peripheral blood mononuclear cells; assay: Proliferation inhibition assay for human peripheral blood mononuclear cells; format: cell-based; settings: PBMC, anti-CD3 and anti-CD28 antibody, 3 days, Alamar Blue
Experimental: 4 mL of blood collected from healthy subjects was placed on 3 mL of MonoPoly Resolving Medium, and after centrifugation, the mononuclear cell (PBMC) fraction was collected. After washing with saline, PBMC (1×10^5 cells/mL) was suspended in RPMI 1640 medium (containing 10% fetal bovine serum, 10 mM HEPES, 1 mM pyruvic acid, and 4.5 g/L glucose). Next, after having added an anti-CD28 antibody (1 μg/mL) to the suspension, they were seeded on an anti-human CD3 T cell activation plate (BD Bioscience) at a capacity of 0.135 mL per well. Then, serial dilutions of test substances were added to respective wells, and incubated under conditions of carbon dioxide 5% at a temperature 37° C. After 3 days, Alamar Blue solution was added at 50 μL per well, and after incubation for one day, a fluorescence intensity at 590 nm using an excitation wavelength of 530 nm was determined by Cytoflour 4000 (Applied Biosystems).

[2] = system: Rabbit synoviocytes HIG-82; assay: Inhibition assay for proliferation of rabbit synoviocyte; format: cell-based; settings: HIG-82, 3 days, Alamar Blue
Experimental: Rabbit synoviocytes HIG-82 suspended in HAM medium (containing 10% fetal bovine serum, 25 mM HEPES, and 0.1 mg/mL kanamycin) (with 4×10^4 cells/mL) were seeded in wells of a 96 well plate at 0.135 mL per well. Then, 15 μL of each of serial dilutions of test substances was added to a respective well, and incubated under conditions of carbon dioxide 5% at a temperature 37° C. Alamar Blue solution was added at 50 μL per well on day 0 and day 3, and incubated for one day, and thereafter fluorescence intensity at 590 nm using an excitation wavelength of 530 nm was determined by Cytoflour 4000 (Applied Biosystems).

[3] = system: allogeneic mixed lymphocyte reaction; assay: Allogeneic mixed lymphocyte reaction; format: cell-based, mouse; settings: C57BL/6N spleen stimulator cells, BALB/c lymph node responder cells, 86 hours, BrdU
Experimental: Spleen cells prepared from C57BL/6N female mice (8-10 weeks old, purchased from Charles River Laboratories Japan Inc.) and peripheral lymph node mononuclear cells prepared from BALB/c female mice (8-10 weeks old, purchased from Charles River Laboratories Japan Inc.) were used as stimulator cells and responder cells, respectively. The respective cells were suspended in RPMI 1640 medium (containing 10% fetal bovine serum, 100 units/mL penicillin, and 0.1 mg/mL streptomycin) (with 2×10^6 cells/mL).

[4] = system: Daudi cells; assay: Proliferation inhibitory activity on hematologic neoplasm cells, Daudi; format: cell-based; settings: 3 days, Alamar Blue
Experimental: (§1) Daudi cells (5×10^5 cells/mL), Jurkat cells (5×10^5 cells/mL), THP-1 cells (5×10^5 cells/mL), U 937 cells (5×10^5 cells/mL), and HL 60 cells (5×10^5 cells/mL) suspended in RPMI 1640 medium (containing 10% fetal bovine serum, 10 mM HEPES, 1 mM pyruvic acid, 4.5 g/L glucose, 100 units/mL penicillin, and 0.1 mg/mL streptomycin) were seeded in 96 well plates at a capacity of 0.135 mL per well. Serial dilutions of test substances were added to respective wells at 15 μL/well, and incubated under conditions of carbon dioxide 5% at 37° C. for 3 days. Thereafter, Alamar Blue solution was added at 50 μL, and after incubation for one day, the fluorescence intensity at 590 nm using an excitation wavelength of 530 nm was determined by Cytoflour 4000 (Applied Biosystems).

[5] = system: Jurkat cells; assay: Proliferation inhibitory activity on hematologic neoplasm cells, Jurkat; format: cell-based; settings: 3 days, Alamar Blue
Experimental: as §1

[6] = system: HL 60 cells; assay: Proliferation inhibitory activity on hematologic neoplasm cells, HL60; format: cell-based; settings: 3 days, Alamar Blue
Experimental: as §1

[7] = system: THP-1 cells; assay: Proliferation inhibitory activity on hematologic neoplasm cells, THP-1; format: cell-based; settings: 3 days, Alamar Blue
Experimental: as §1

[8] = system: U 937 cells; assay: Proliferation inhibitory activity on hematologic neoplasm cells, U937; format: cell-based; settings: 3 days, Alamar Blue
Experimental: as §1

[9] = system: mouse spleen cells; assay: Proliferation inhibition assay for mouse spleen cells; format: cell-based; settings: 72 h, 3 days, Alamar Blue
Experimental: Spleen cells (2×10^6 cells/mL) prepared from C57BL/6N female mice (8 weeks old, purchased from Charles River Laboratories Japan Inc.) were suspended in RPMI 1640 medium (containing 10% fetal bovine serum, 10 mM HEPES, 1 mM pyruvic acid, 4.5 g/L glucose, 100 units/mL penicillin, and 0.1 mg/mL streptomycin), and seeded in wells of a 96 well plate at 0.225 mL per well. Serial dilutions of test substances were added to respective wells, and then concanavalin A (Con A, 3 μg/mL), lipopolysaccharide (LPS, 100 μg/mL), or an anti-mouse IgM antibody (100 μg/mL) were added. Thereafter, they were incubated under conditions of carbon dioxide 5% at a temperature 37° C. for 3 days. Next, Alamar Blue solution was added at 50 μL per 150 μL, and after having cultured for one day, the fluorescence intensity at 590 nm using an excitation wavelength of 530 nm was determined by Cytoflour 4000 (Applied Biosystems).

[10] = system: fulminant hepatitis; assay: Fulminant hepatitis model (galactosamine and LPS); format: in vivo, mouse; settings: BALB/c mice, galactosamine 800 mg/kg and LPS 110 μg/kg i.p.
Experimental: BALB/c male mice (7 weeks old, purchased from Charles River Laboratories Japan Inc.) were used in the experiment. After having orally administered the test substances suspended in 5% HPC, galactosamine (800 mg/kg) and LPS (110 μg/kg) were intraperitoneally administered. Then, survival rates at 72 hours after administration were obtained.

[11] = LPS 100 μg/mL, read-out: Inhibition of LPS response
[12] = concanavalin A 3 μg/mL, read-out: Inhibition of Con A response
[13] = anti-mouse IgM antibody 100 μg/mL, read-out: Inhibition of Anti-IgM antibody response

Compound | IC50 [9, 11] | IC50 [9, 12] | IC50 ([1]; Homo sapiens, 72 h) | IC50 ([2]; Oryctolagus cuniculus, 72 h) | IC50 ([3]; Mus musculus, Lymphocyte) | IC50 ([4]; Homo sapiens, Daudi, 72 h) | IC50 ([5]; Homo sapiens, Jurkat, 72 h) | IC50 ([6]; Homo sapiens, HL-60, 72 h) | IC50 ([7]; Homo sapiens, THP-1, 72 h) | IC50 ([8]; Homo sapiens, U-937, 72 h) | melting point | Survival Rate after 72 Hours ([10]; 100 mg/kg oral) | further results
2-(2-Difluoromethyl-4-hydroxybenzimidazol-1-yl)-4-morpholino-6-(2,6-dimethylmorpholino)pyrimidine [Compound 11] |  |  |  |  |  |  |  |  |  |  |  |  | IC50 [1]: > 10 µM; IC50 [2]: > 10 µM; IC50 [3]: 1.43 µM; IC50 [4]: 2.75 µM; IC50 [5]: > 10 µM; IC50 [6]: > 10 µM; IC50 [7]: > 10 µM; IC50 [8]: > 10 µM
Cc1nc2ccccc2n1-c1nc(N2CCOCC2)nc(N2CCOCC2)n1 [Compound 1, 2-(2-Methylbenzimidazol-1-yl)-4,6-dimorpholino-1,3,5-triazine] | 0.1 to 10 µM | 0.1 to 10 µM | 1.78 µM | 4.85 µM | 0.67 µM | 0.827 µM | 5.02 µM | > 10 µM | 0.535 µM | > 10 µM | 218 to 220 °C (dec.) |  | 
OCc1nc2ccccc2n1-c1nc(N2CCOCC2)nc(N2CCOCC2)n1 [Compound 3, 4,6-Dimorpholino-2-(2-hydroxymethylbenzimidazol-1-yl)-1,3,5-triazine] | 0.1 to 10 µM | 0.1 to 10 µM | 1.13 µM | 1.78 µM | 0.6 µM | 0.379 µM | 3.27 µM | 3.16 µM | 0.135 µM | 4.14 µM | 208 to 210 °C (dec.) |  | 
Nc1nc2ccccc2n1-c1nc(N2CCOCC2)nc(N2CCOCC2)n1 [Compound 6, 2-(2-Aminobenzimidazol-1-yl)-4,6-dimorpholino-1,3,5-triazine] | 0.1 to 10 µM | 0.1 to 10 µM | 2.08 µM | 6.35 µM | 3.63 µM | 0.803 µM | 6.62 µM | > 10 µM | 5.54 µM | > 10 µM |  | 40% | IC50 [9, 13]: 0.1 to 10 µM
Cc1cccc2c1nc(C(F)F)n2-c1nc(N2CCOCC2)nc(N2CCOCC2)n1 [Compound 10, 2-(2-Difluoromethyl-4-methylbenzimidazol-1-yl)-4,6-dimorpholino-1,3,5-triazine] | 10 to 100 µM | 0.1 to 10 µM | 0.825 µM | 6.51 µM | 0.344 µM | 0.16 µM | > 10 µM | 1.79 µM | 0.794 µM | > 10 µM | 259 to 260 °C |  | IC50 [9, 13]: 0.1 to 10 µM
Nc1cccc2c1nc(C(F)F)n2-c1nc(N2CCOCC2)nc(N2CCOCC2)n1 [Compound 14, 2-(4-Amino-2-difluoromethylbenzimidazol-1-yl)-4,6-dimorpholino-1,3,5-triazine] |  |  | 0.0923 µM | 0.484 µM | 0.227 µM | 0.0655 µM | 1.34 µM | 0.396 µM | 0.286 µM | 1.11 µM | 214 to 216 °C (dec.) |  | 
Oc1cccc2c1nc(C(F)F)n2-c1nc(N2CCOCC2)nc(N2CCOCC2)n1 [Compound 15, 2-(2-Difluoromethyl-4-hydroxybenzimidazol-1-yl)-4,6-dimorpholino-1,3,5-triazine] |  |  | 0.00291 µM | 0.0856 µM | 0.0421 µM | 0.00492 µM | 0.116 µM | 0.0358 µM | 0.0454 µM | 0.217 µM |  | 0% | Survival Rate after 72 Hours ([10]; 50 mg/kg oral): 17%
Oc1ccc2nc(C(F)F)n(-c3nc(N4CCOCC4)nc(N4CCOCC4)n3)c2c1 [Compound 16, 2-(2-Difluoromethyl-6-hydroxybenzimidazol-1-yl)-4,6-dimorpholino-1,3,5-triazine] |  |  | 0.0123 µM | 0.163 µM | 0.46 µM | 0.0103 µM | 0.357 µM | 0.0672 µM | 0.112 µM | 0.604 µM | > 250 °C |  | 
Oc1cccc2c1nc(C(F)F)n2-c1nc(N2CCOCC2)cc(N2CCOCC2)n1 [Compound 18, 2-(2-Difluoromethyl-4-hydroxybenzimidazol-1-yl)-4,6-dimorpholinopyrimidine] |  |  |  |  |  |  |  |  |  |  |  | 80% | Survival Rate after 72 Hours ([10]; 50 mg/kg oral): 50%
COc1ccc2c(c1)nc(C(F)F)n2-c1nc(N2CCOCC2)nc(N2CCOCC2)n1 [Compound 23, 2-(2-Difluoromethyl-5-methoxybenzimidazol-1-yl)-4,6-dimorpholino-1,3,5-triazine] |  |  | 0.0192 µM | 0.121 µM | 0.258 µM | 0.0132 µM | 0.229 µM | 0.139 µM | 0.0686 µM | 0.345 µM |  |  | 
